In patent EP0374249A1, “METHOD OF STERILIZING PLANT POLLEN” (VSESOJUZNY NAUCHNO-ISSLEDOVATELSKY INST. SELSKOKHOZYAISTV. …, priority 1988, dated 1989):

Test system: Hirse Sorte K-9693 Kormovoe 1
Experiment: Field test of pollen sterilisation, millet K-9693 Kormovoe 1
Assay type: in vivo
Settings: 1% aqueous emulsion, 6 kg/ha; for Prozentsatz der Sterilität / Anzahl von Körnern der Rispe bei freier Bestäubung / Anzahl von Körnern der Rispe im Isolator: period V of organogenesis; for Anzahl von Körnern der Rispe bei freier Bestäubung: free pollination; for Anzahl von Körnern der Rispe im Isolator: isolated panicles; for Prozentsatz des Ansetzens von Körnern bei freier Bestäubung: period V, non-isolated control = 100%
Excerpt: Die gametozide Aktivität der erfindungsgemässen Sterilisationsmittel war im Feldversuch in verschiedenen Bodenklimatischen Zonen mit Teilstücken von 10 m^2 Grösse in drei- bis viermaliger Wiederholung nachgewiesen. Jedes Sterilisationsmittel wurde mindestens 5 Jahre lang geprüft.
Die Entwicklung der Perioden der Organogenese wird zytologischüberwacht. Die Behandlung von Pflanzen mit dem Sterilisationsmittel erfolgt am Anfang der fünften Periode der Organogenese nach Kupermann.
Mit dem Ahrenschiebe verwirklicht man die Isolierung von Hauptähren und anderen Stockwerken in Pergamentbeuteln. Bei Weizen und Tritikale werden Einzelisolatoren verwendet. Bei Roggen schliesst man je Ähre 5 bis 7 verschiedene nebeneinander befindliche Pflanzen unter einen gemeinsamen Isolator ein. Bei Hirse wird jede Rispe getrennt isoliert. Der Sterilitätsprozentsatz (X) für Weizen, Roggen, Tritikale und Hirse wird nach folgender Formel [formula] ermittelt.
Die Kornzahl in nicht isolierten ähren von Kontrollpflanzen wird bedingt für 100% Ansetzen bei freier Bestäubung angenommen.
Um zuverlässige Angaben zu erhalten, verwendet man 20 bis 25 Isolatoren jeder Wiederholung für Weisen und Tritikale, 10 bis 15 Gruppenisolatoren jeder Wiederholung für Roggen und Hirse.
Pflanzen der Hirse Sorte K-9693 Kormovoe 1 werden in der V. Periode der Organogenese (nach Kupermann) mit einer 1%igen wässrigen Emulsion von N-(2-Dimethylaminoäthyl) maleaminsäure, N-(3-Dimethylaminopropyl)maleaminsäure, N-Äthylmaleaminsäure, N-Karbamoylmaleaminsäure behandelt. Die Emulsion enthält 0,01 Masse% Dimethylformamid und 0,1 Masse% Kalziumalkylbenzolsulfonat mit 12 bis 14 Kohlenstoffatomen.
Der Verbrauch an Präparat beträgt 6 kg/ha. Als Kontrolle dienen Pflanzen, behandelt mit einem Verdünner ohne Sterilisationsmittel. Die Prüfergebnisse sind in der Tabelle13 dargestellt. […] Periode der Organogenese erhalten.

SMILES	Prozentsatz der Sterilität	Anzahl von Körnern der Rispe bei freier Bestäubung	Anzahl von Körnern der Rispe im Isolator	Prozentsatz des Ansetzens von Körnern bei freier Bestäubung
O=C(O)/C=C\C(=O)NCCO [Beispiel 57, N-(2-Hydroxyäthyl)maleaminsäure]	100,0%	127,2	0,0	86,7%
CCNC(=O)/C=C\C(=O)O [Beispiel 56, N-Äthylmaleaminsäure]	100,0%	114,7	0,0	78,2%
CN(C)CCNC(=O)/C=C\C(=O)O [Beispiel 54, N-(2-Dimethylaminoäthyl) maleaminsäure]	100,0%	124,2	0,0	84,7%
CN(C)CCCNC(=O)/C=C\C(=O)O [Beispiel 55, N-(3-Dimethylaminopropyl)maleaminsäure]	100,0%	100,8	0,0	68,7%
NC(=O)NC(=O)/C=C\C(=O)O [Beispiel 58, N-Karbamoylmaleaminsäure]	100,0%	133,6	0,0	91,1%
